63 compounds from patent publication US20250034170A1, “SMALL MOLECULE MODULATORS OF GLUCOCEREBROSIDASE ACTIVITY AND USES THEREOF” (Vanqua Bio, Inc., priority 2021, published 2025) can be followed below.

A value given as a limit tells only on which side of the number the result lay.

The first experiment deals with T1, GCase (Homo sapiens, UniProt P04062).
T1 construct: endogenous in cells; host or cells: HeLa cells
T1 sequence (P04062 40-536): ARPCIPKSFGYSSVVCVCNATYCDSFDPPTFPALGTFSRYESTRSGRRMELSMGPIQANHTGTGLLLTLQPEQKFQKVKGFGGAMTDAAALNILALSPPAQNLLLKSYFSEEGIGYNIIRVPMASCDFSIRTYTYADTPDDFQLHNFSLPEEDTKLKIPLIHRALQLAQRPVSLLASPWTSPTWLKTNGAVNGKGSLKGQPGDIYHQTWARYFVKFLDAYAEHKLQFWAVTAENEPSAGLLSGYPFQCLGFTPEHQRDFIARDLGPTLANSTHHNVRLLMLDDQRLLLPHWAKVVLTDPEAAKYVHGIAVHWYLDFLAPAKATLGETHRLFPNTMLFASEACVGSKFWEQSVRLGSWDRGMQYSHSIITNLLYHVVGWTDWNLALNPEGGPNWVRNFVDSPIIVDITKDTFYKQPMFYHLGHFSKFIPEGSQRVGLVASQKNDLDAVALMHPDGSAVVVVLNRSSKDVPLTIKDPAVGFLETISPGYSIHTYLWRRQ
Put plainly: activation of GCase in a live cell PFB assay in HELA cells. Format: cell-based. Conditions: EC50 given as range classes. The protocol: Exemplary compounds were evaluated for activation of GCase in a live cell PFB assay in HELA cells (essentially as described in Ysselstein et al., “LRRK2 kinase activity regulates lysosomal glucocerebrosidase in neurons derived from Parkinson's disease patients” Nature Communications (2019) 10:5570). […] EC50 ranges: A: <10 μM; B: >10-50 μM; C: >50-100 μM; D: >100 μM.
By EC50 is commonly meant the concentration needed to bring the measured effect to its halfway point. Higher therefore signals a need for much substance. The compound `Cc1nc(N2CCC3(C2)CN(c2cnc4c(C)nn(CC(F)F)c4n2)C3)cc(C(F)(F)F)n1` [Cmpd 578] had a 50% effective concentration (EC50) of 10 to 50 µM. For `Cc1nc(N2CCC3(CC2)CCN(c2cnc4cnn(CC(F)F)c4n2)C3)cc(C(F)(F)F)n1` [Cmpd 579], the EC50 fell in the range of 10 to 50 µM.

The compound `Cc1nc(N2CCC3(CC2)CCN(c2cnc4cnn(CC(F)(F)F)c4n2)C3)cc(C(F)(F)F)n1` [Cmpd 580] came in with an EC50 of 10 to 50 µM. `Cc1nc(N2CCC3(CC2)CCN(c2ncc4cnn(CC(F)F)c4n2)C3)cc(C(F)(F)F)n1` [Cmpd 581] registered an EC50 of 10 to 50 µM. The same measure, in the same setting: the value for `Cc1nc(N2CCC3(CC2)CCN(c2cnc4c(C)nn(CC(F)F)c4n2)C3)cc(C(F)(F)F)n1` [Cmpd 582] was 10 to 50 µM; that for `Cc1nc(N2CCC3(CC2)CCN(c2cnc4cnn(C5COC5)c4n2)C3)cc(C(F)(F)F)n1` [Cmpd 583] was over 100 µM; that for `Cc1nc(N2CCC3(CC2)CN(c2cnc4cnn(C5COC5)c4n2)C3)cc(C(F)(F)F)n1` [Cmpd 584] was 10 to 50 µM. Still for that read-out and setting: under `Cc1nc(N2CCC3(CC2)CN(c2cnc4c(C)nn(CC(F)F)c4n2)C3)cc(C(F)(F)F)n1` [Cmpd 585] stands under 10 µM; under `Cc1nc(N2CCC3(CC2)CN(c2ncc4cnn(CC(F)F)c4n2)C3)cc(C(F)(F)F)n1` [Cmpd 586], 10 to 50 µM; under `Cc1nc(N2CCC3(CC2)CN(c2cnc4cnn(CC(F)(F)F)c4n2)C3)cc(C(F)(F)F)n1` [Cmpd 587], 10 to 50 µM. Still for that read-out and setting: under `Cc1nc(N2CCC3(CC2)CN(c2cnc4cnn(CC(F)F)c4n2)C3)cc(C(F)(F)F)n1` [Cmpd 588] stands under 10 µM. `Cc1nc(N2CC3(CCN(c4ncc5cnn(C6COC6)c5n4)C3)C2)cc(C(F)(F)F)n1` [Cmpd 589] showed an EC50 of 10 to 50 µM. `Cc1cc(N2CC3(CCN(c4ncc5cnn(C6COC6)c5n4)C3)C2)nc(C(F)(F)F)n1` [Cmpd 590] returned an EC50 of 10 to 50 µM.

Take `Cc1ncc(N2CC3(CCN(c4ncc5c(C)nn(CC(F)F)c5n4)C3)C2)c(C(F)(F)F)n1` [Cmpd 591]: the EC50 was under 10 µM. Still for that read-out and setting: under `Cc1ncc(N2CC3(CCN(c4cnc5cnn(CC(F)F)c5n4)C3)C2)c(C(F)(F)F)n1` [Cmpd 592] stands over 100 µM; under `Cc1ncc(N2CC3(CCN(c4cnc5c(C)nn(CC(F)F)c5n4)C3)C2)c(C(F)(F)F)n1` [Cmpd 593], over 100 µM. The compound `Cc1ncc(N2CC3(CCN(c4cnc5cnn(CC(F)(F)F)c5n4)C3)C2)c(C(F)(F)F)n1` [Cmpd 594] displayed a concentration giving a half-maximal response (EC50) of over 100 µM.

On to `Cc1ncc(N2CC3(CCN(c4ncc5cnn(CC(F)F)c5n4)C3)C2)c(C(F)(F)F)n1` [Cmpd 595], for which the EC50 is under 10 µM. On the same count and under the same terms, the value for `Cc1ncc(N2CC3(CCN(c4ncc5cnn(CC(F)(F)F)c5n4)C3)C2)c(C(F)(F)F)n1` [Cmpd 596] was under 10 µM; that for `Cc1ncc(N2CC3(CCN(c4cnc5cnn(C6COC6)c5n4)C3)C2)c(C(F)(F)F)n1` [Cmpd 597] was over 100 µM.

`Cc1ncc(N2CC3(CCN(c4ncc5cnn(C6COC6)c5n4)C3)C2)c(C(F)(F)F)n1` [Cmpd 598] gave a 50% effective concentration (EC50) of 10 to 50 µM. On the same count and under the same terms, under `Cc1ncc(N2CC3(CCN(c4cnc5c(C)nn(C6COC6)c5n4)C3)C2)c(C(F)(F)F)n1` [Cmpd 599] stands 10 to 50 µM; under `Cc1ncc(N2CC3(CCN(c4ncc5c(C)nn(C6COC6)c5n4)C3)C2)c(C(F)(F)F)n1` [Cmpd 600], 50 to 100 µM. Compound `Cc1ncc(N2CCC3(CCN(c4cnc5cnn(CC(F)F)c5n4)CC3)C2)c(C(F)(F)F)n1` [Cmpd 601] came in with a 50% effective concentration (EC50) of under 10 µM. In turn, `Cc1ncc(N2CCC3(CCN(c4cnc5c(C)nn(CC(F)F)c5n4)CC3)C2)c(C(F)(F)F)n1` [Cmpd 602] registered an EC50 of 10 to 50 µM.

`Cc1nn(CC(F)(F)F)c2nc(N3CCC4(CCN(c5cnc(C(F)(F)F)nc5)C4)C3)cnc12` (stereo not drawn) [Cmpd 603] registered an EC50 of 10 to 50 µM. Compound `Cc1nc(N2CCC3(CCN(c4cnc5c(C)nn(CC(F)(F)F)c5n4)C3)C2)cc(C(F)(F)F)n1` (stereo not drawn) [Cmpd 604] had an EC50 of over 100 µM. On the same count and under the same terms, under `Cc1nn(CC(F)(F)F)c2nc(N3CCC4(CN(c5cnc(C(F)(F)F)nc5)C4)C3)cnc12` [Cmpd 605] stands over 100 µM; under `Cc1ncc(N2CC3(CCN(c4cnc5c(C)nn(CC(F)(F)F)c5n4)C3)C2)c(C(F)(F)F)n1` [Cmpd 606], 50 to 100 µM; under `Cc1cc(N2CC3(CCN(c4cnc5c(C)nn(CC(F)(F)F)c5n4)C3)C2)nc(C(F)(F)F)n1` [Cmpd 607], 10 to 50 µM. As for `Cc1nc(N2CC3(CCN(c4cnc5c(C)nn(CC(F)(F)F)c5n4)C3)C2)cc(C(F)(F)F)n1` [Cmpd 608], the half-maximal effective concentration (EC50) lay within 50 to 100 µM. On to `Cc1nc(N2CCC3(C2)CN(c2cnc4c(C)nn(CC(F)(F)F)c4n2)C3)cc(C(F)(F)F)n1` [Cmpd 609], for which the EC50 lay in the range of 10 to 50 µM.

Staying with this experiment, now noted: activation of GCase, EC50 ranges.
`Cc1nn(CC(F)F)c2nc(N3CCC4(CCN(c5cnc(C(F)(F)F)nc5)C4)C3)ncc12` (stereo not drawn) [Cmpd 547] showed an EC50 of 10 to 50 µM. Still for that read-out and setting: the value for `Cc1nc(N2CCC3(CCN(c4ncc5cnn(CC(F)(F)F)c5n4)C3)C2)cc(C(F)(F)F)n1` (stereo not drawn) [Cmpd 548] was over 100 µM.

Compound `Cc1nc(N2CCC3(CCN(c4cnc5c(C)nn(C6COC6)c5n4)CC3)C2)cc(C(F)(F)F)n1` [Cmpd 549] displayed an EC50 of over 100 µM.

The compound `Cc1nc(N2CCC3(CCN(c4ncc5c(C)nn(C6COC6)c5n4)CC3)C2)cc(C(F)(F)F)n1` [Cmpd 550] returned an EC50 of over 100 µM.

`Cc1nc(N2CCC3(C2)CN(c2cnc4cnn(CC(F)F)c4n2)C3)cc(C(F)(F)F)n1` [Cmpd 551] registered an EC50 of under 10 µM. On the same count and under the same terms, the value for `Cc1nc(N2CCC3(C2)CN(c2cnc4cnn(CC(F)(F)F)c4n2)C3)cc(C(F)(F)F)n1` [Cmpd 552] was under 10 µM; that for `Cc1nc(N2CCC3(C2)CN(c2ncc4cnn(CC(F)F)c4n2)C3)cc(C(F)(F)F)n1` [Cmpd 553] was 10 to 50 µM; that for `Cc1nc(N2CCC3(C2)CN(c2ncc4cnn(CC(F)(F)F)c4n2)C3)cc(C(F)(F)F)n1` [Cmpd 554] was 10 to 50 µM. For the compound `Cc1nc(N2CCC3(C2)CN(c2cnc4cnn(C5COC5)c4n2)C3)cc(C(F)(F)F)n1` [Cmpd 555], the EC50 was under 10 µM.

As for `Cc1nc(N2CCC3(C2)CN(c2cnc4c(C)nn(C5COC5)c4n2)C3)cc(C(F)(F)F)n1` [Cmpd 556], the EC50 is 10 to 50 µM. Still for that read-out and setting: the value for `Cc1nc(N2CCC3(C2)CN(c2ncc4cnn(C5COC5)c4n2)C3)cc(C(F)(F)F)n1` [Cmpd 557] was 10 to 50 µM. For `Cc1nc(N2CCC3(C2)CN(c2ncc4c(C)nn(C5COC5)c4n2)C3)cc(C(F)(F)F)n1` [Cmpd 558], the EC50 is under 10 µM. In turn, `CC(C)c1ncc(N2CC3(CCN(c4cnc5cnn(CC(F)F)c5n4)C3)C2)cn1` [Cmpd 559] yielded an EC50 of 10 to 50 µM. With `FC(F)Cn1ncc2ncc(N3CCC4(CN(c5cnc(C6CC6)nc5)C4)C3)nc21` [Cmpd 560], the EC50 lay within 10 to 50 µM.

For the compound `Cc1ncc(N2CC3(CCN(c4cnc5cnn(CC(F)F)c5n4)CC3)C2)c(C(F)(F)F)n1` [Cmpd 561], the EC50 lay within 10 to 50 µM.

`Cc1nc(N2CC3(CCN(c4ncc5cnn(C6COC6)c5n4)CC3)C2)cc(C(F)(F)F)n1` [Cmpd 562] gave an EC50 of 10 to 50 µM.

Consider `Cc1nc(N2CC3(CCN(c4cnc5cnn(C6COC6)c5n4)CC3)C2)cc(C(F)(F)F)n1` [Cmpd 563], for which the EC50 was over 100 µM.

For the compound `Cc1nc(N2CC3(CCN(c4ncc5cnn(CC(F)F)c5n4)CC3)C2)cc(C(F)(F)F)n1` [Cmpd 564], the half-maximal effective concentration (EC50) was under 10 µM. Same read-out and setting: the value for `Cc1nc(N2CC3(CCN(c4cnc5c(C)nn(C6COC6)c5n4)CC3)C2)cc(C(F)(F)F)n1` [Cmpd 565] was 10 to 50 µM. Still for that read-out and setting: the value for `Cc1nc(N2CC3(CCN(c4ncc5cnn(CC(F)(F)F)c5n4)CC3)C2)cc(C(F)(F)F)n1` [Cmpd 566] was under 10 µM; that for `Cc1nc(N2CC3(CCN(c4cnc5cnn(CC(F)(F)F)c5n4)CC3)C2)cc(C(F)(F)F)n1` [Cmpd 567] was under 10 µM. The same measure, in the same setting: under `Cc1nc(N2CC3(CCN(c4cnc5c(C)nn(CC(F)F)c5n4)CC3)C2)cc(C(F)(F)F)n1` [Cmpd 568] stands under 10 µM; under `Cc1nc(N2CC3(CCN(c4ncc5c(C)nn(CC(F)F)c5n4)CC3)C2)cc(C(F)(F)F)n1` [Cmpd 569], 10 to 50 µM; under `Cc1nc(N2CC3(CCN(c4ncc5c(C)nn(C6COC6)c5n4)CC3)C2)cc(C(F)(F)F)n1` [Cmpd 570], 10 to 50 µM. For the compound `Cc1nc(N2CCC3(CCN(c4cnc5cnn(CC(F)(F)F)c5n4)CC3)C2)cc(C(F)(F)F)n1` [Cmpd 571], the EC50 was in the range of 10 to 50 µM. `Cc1nc(N2CCC3(CCN(c4ncc5cnn(CC(F)(F)F)c5n4)CC3)C2)cc(C(F)(F)F)n1` [Cmpd 572] displayed an EC50 of under 10 µM. Same read-out and setting: under `Cc1nc(N2CCC3(CCN(c4ncc5cnn(C6COC6)c5n4)CC3)C2)cc(C(F)(F)F)n1` [Cmpd 573] stands over 100 µM. On the same count and under the same terms, under `Cc1nc(N2CCC3(CCN(c4cnc5cnn(C6COC6)c5n4)CC3)C2)cc(C(F)(F)F)n1` [Cmpd 574] stands 10 to 50 µM; under `Cc1nc(N2CCC3(CCN(c4cnc5c(C)nn(CC(F)F)c5n4)CC3)C2)cc(C(F)(F)F)n1` [Cmpd 575], over 100 µM; under `Cc1nc(N2CCC3(CCN(c4ncc5c(C)nn(CC(F)F)c5n4)CC3)C2)cc(C(F)(F)F)n1` [Cmpd 576], 10 to 50 µM. Same read-out and setting: the value for `Cc1nc(N2CCC3(C2)CN(c2ncc4c(C)nn(CC(F)F)c4n2)C3)cc(C(F)(F)F)n1` [Cmpd 577] was 10 to 50 µM.
